Assay results: patent US20230303584A1, “4,5,6,7-TETRAHYDROTHIENO[2,3-C]PYRIDINE SUMO INHIBITORS AND USES THEREOF” (SUVALENT THERAPEUTICS INC., priority 2020, published 2023)

Experiments:
[1] = target: SUMO activating enzyme (E1) (Homo sapiens (Human), UniProt Q9UBT2); assay: Inhibitory effect on activating enzyme (E1), 15 min preincubation (Table 2); type: biochemical; details: enzyme preincubated with compound for 15 minutes; read-out: E1 biological activity
Description: Compounds are evaluated for their inhibitory effect on activating enzymes (E1) of ubiquitin, SUMO, Nedd8, Urm1, ISG15 or Atg7 using previously reported methods and protocols. One example is in: Allosteric inhibition of ubiquitin-like modifications by a class of inhibitor of SUMO-activating enzyme. Cell Chemical Biology, 26,1-11, 2019. PMID: 28051857. The enzyme was preincubated with the compounds for 15 minutes.

SAE1 = SAE1 (Homo sapiens (Human), UniProt Q9UBT2); assay: SAE high throughput biochemical (HTRF) assay; details: 15 min preincubation; 100 µM ATP; read-out: 15 min preincubation HTRF IC50 (uM) Ave
Description: Assay buffer was prepared [50 mM HEPES, pH 7.5, 0.1% BSA and 10 mM MgCl2] as was the Stop Buffer [100 mM HEPES, pH 7.5, 0.05% Tween20, and 410 mM KF]. The 2x Reaction Buffer [80 nM SUMO-GST, 80 nM UBC9-His, 200 µM ATP and diluted in Assay Buffer] and Antibody Reaction Mix [13.34 nM anti-GST XL665, 1.66 nM anti-His EuK and Diluted in Stop Buffer] were also prepared. Compounds were dissolved at 200x in DMSO in a 384-well plate. Serial dilutions were performed in DMSO for each compound, and then each concentration was diluted another 50-fold in Assay Buffer, to 4x the final concentration. 2.5 µL of each concentration was transferred into its own well in a 384-well plate. SAE1 was then diluted to 4x in Assay Buffer, and 2.5 µL of 4x SAE1 was mixed into each compound-containing well. After incubating for 15 minutes at room temperature, 5 µL of 2x Reaction Buffer was mixed into every well. Then after another 45 minutes at room temperature, 10 µL of Antibody Reaction Mix was added and mixed into every well. This plate was then read on an HTRF-compatible plate reader after 2 hours at room temperature, and again after sitting at room temperature overnight. [Final Component Concentrations: SAE1: 12.5 nM; SUMO-GST: 40 nM; UBC9-His: 40 nM; Anti-GST-XL665: 6.67 nM; Anti-His-EuK: 0.83 nM; and ATP: 100 µM ] Alternatively, the compounds are tested at a single concentration of 25 micromolar and the percent of control is measured.

[2] = test system: SUMO 2/3 conjugates (sumoylation levels) in HCT-116 cells; assay: HCT-116 4 hour cell assay, immunoblot of SUMO 2/3 conjugates; type: cell-based; details: 4 h treatment, Western blot, read-out: Cell HCT-116 Western SUMO 2/3 4 h IC50 (uM) Ave
Description: This protocol describes the procedures used to assess the effects of compounds of interest on sumoylation levels. Immunoblot of SUMO ⅔ conjugates are performed and IC50 curves are generated upon quantification of sumoylations bands. HCT-1 16 cells are seeded in a 12 well plate (500,000 cells/well). The following day the cells are treated with compounds of interest (resuspended in DMSO) for 4 hours (11 concentrations with a three-fold dilution; starting concentration 25 µM) Following 4 hours of incubation the cells are washed with ice cold PBS 1X and protein extraction is performed with RIPA buffer supplemented with phosphatases and proteases inhibitors, 25 mM of NEM and 50 units/mL of Benzonase . Samples undergo centrifugation at 13,000 RPM, 4° C., for 10 minutes and the supernatant is collected. Protein quantification is performed using BCA. Non-Reducing Laemmli Buffer is added to the samples. Samples are heated at 75° C. for 10 minutes, and are centrifuged for 3 minutes at 9000 RPM Nupage 4-12% Bis Tris gels and 1x MOPS buffer (Fisher Scientific) + 1x NuPAGE Antioxidant (Invitrogen) are used to perform the SDS-PAGE gel electrophoresis (20 to 40 µg of proteins are loaded in the gels). Proteins are then transferred to PVDF membranes and the level of total proteins are measured by staining with Revert Total Protein Stain and the fluorescent bands are acquired using the LI-COR FC (700 nm for 1 min) Membranes are blocked for 5 minutes with Bio-Rad Blocking Buffer and are subsequently incubated over night at 4° C. with Anti-Sumo 2-3 mAb (MBL #M114-3, 1:1000 in Bio-Rad Blocking Buffer, 0.2% Tween 20) Membranes are washed with 1X TBS-T (3 times for 5 minutes) and sumoylation is detected using Li-cor IRDye 800CW Goat anti-Mouse IgG secondary antibody (1:10,000 dilution) upon 1 hour of incubation in blocking buffer with 0.2% Tween 20 and 0.01% SDS. After the incubation, the membranes are washed with 1X TBS-T (3 times for 5 minutes). To visualize the fluorescent bands the membranes are scanned with LI-COR FC (700 nm for 1 min and […] for 2 mins) Sumoylation levels are quantified upon normalization with total protein levels, using the LI-COR Image Studio Lite 5.2 Software.

Sequence of SAE1 (Q9UBE0 whole entry partner): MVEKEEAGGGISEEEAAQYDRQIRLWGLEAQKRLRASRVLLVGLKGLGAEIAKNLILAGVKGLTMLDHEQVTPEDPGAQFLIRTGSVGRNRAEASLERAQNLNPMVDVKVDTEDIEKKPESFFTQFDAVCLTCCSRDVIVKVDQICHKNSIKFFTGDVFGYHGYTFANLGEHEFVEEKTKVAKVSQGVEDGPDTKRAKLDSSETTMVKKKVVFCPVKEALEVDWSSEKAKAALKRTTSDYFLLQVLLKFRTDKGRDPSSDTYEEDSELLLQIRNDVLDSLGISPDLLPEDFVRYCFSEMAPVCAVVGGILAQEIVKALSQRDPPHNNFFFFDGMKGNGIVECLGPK
Sequence of SAE1 (Q9UBT2 whole entry): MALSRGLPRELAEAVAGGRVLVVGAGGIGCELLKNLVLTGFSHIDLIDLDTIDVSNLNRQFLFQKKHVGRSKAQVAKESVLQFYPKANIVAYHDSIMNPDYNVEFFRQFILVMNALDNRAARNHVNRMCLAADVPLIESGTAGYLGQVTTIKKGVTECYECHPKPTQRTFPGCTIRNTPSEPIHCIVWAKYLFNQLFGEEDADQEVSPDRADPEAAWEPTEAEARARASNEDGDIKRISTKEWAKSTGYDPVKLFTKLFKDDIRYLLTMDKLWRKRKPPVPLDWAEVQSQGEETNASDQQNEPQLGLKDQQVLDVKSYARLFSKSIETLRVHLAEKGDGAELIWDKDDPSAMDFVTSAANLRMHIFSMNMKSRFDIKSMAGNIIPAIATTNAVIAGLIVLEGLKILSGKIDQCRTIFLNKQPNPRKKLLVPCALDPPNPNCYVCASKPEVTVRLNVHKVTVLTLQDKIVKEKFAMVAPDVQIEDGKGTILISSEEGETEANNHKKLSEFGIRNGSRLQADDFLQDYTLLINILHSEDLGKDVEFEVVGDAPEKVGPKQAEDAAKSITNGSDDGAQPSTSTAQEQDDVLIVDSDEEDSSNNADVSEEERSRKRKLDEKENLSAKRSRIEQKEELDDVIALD
Sequence of SUMO activating enzyme (E1) (Q9UBT2 whole entry): as above
Sequence of SUMO activating enzyme (E1) (Q9UBE0 whole entry partner): as the sequence (Q9UBE0 whole entry partner) above

SMILES	IC50 [1] [µM]	IC50 (SAE1) [µM]	IC50 [2] [µM]
C=CC(=O)N1Cc2sc(Cl)cc2[C@H](c2ccccc2-c2cn(C(C)C)nc2C(F)(F)F)C1 [Compound 255]	< 10		
C=CC(=O)N1Cc2sc(Cl)cc2[C@H](c2ccccc2-c2cn(C(C)(C)C(N)=O)nc2C(F)(F)F)C1 [Compound 312]	< 10	0.23	0.28
C=CC(=O)N1Cc2sc(C(=C)C)cc2[C@H](c2ccccc2-c2cn(CC)nc2C(F)(F)F)C1 [Compound 318]		0.29	0.33
CCn1cc(-c2ccccc2[C@@H]2CN(C(=O)/C=C/CF)Cc3sc(Cl)cc32)c(C(F)(F)F)n1 [Compound 323]		0.13	0.39
C=CC(=O)N1Cc2sc(-c3ccco3)cc2[C@H](c2ccccc2-c2cn(CC)nc2C(F)(F)F)C1 [Compound 324]		0.14	0.34
C=CC(=O)N1Cc2sc(Cl)cc2C(c2ccccc2-c2cn(-c3ccncc3Cl)nc2C(F)(F)F)C1 (stereo not shown) [Compound 340]		0.93	
C=CC(=O)N1Cc2sc(Cl)cc2[C@H](c2ccccc2-c2cnn(CC)c2CC)C1 [Compound 360]		4.33	13.6
